According to the NIST ThermoML archive (doi:10.1016/j.jct.2019.02.031):

Legend:
[1] = 101 kPa, Liquid; for viscosity: Falling or rolling sphere viscometry; for mass density: Vibrating tube method
[2] = molar heat capacity at constant pressure; details: 101.33 kPa, Liquid, DSC
[3] = xn = mol fraction of the nth substance listed; details: 101 kPa, Liquid, x2 = 0; for viscosity: Falling or rolling sphere viscometry; for mass density: Vibrating tube method

Cn1cc[n+](CCC[N+](C)(C)C)c1.N#C[N-]C#N.N#C[N-]C#N
Details	mass density, [1] [kg/m3]	molar heat capacity at constant pressure, [2] [J/K/mol]	viscosity, [1] [mPa·s]
283.15 K	1162.82	–	4998
288.15 K	1159.76	–	2736
293.15 K	1156.74	–	1608
298.15 K	1153.73	519.44	1007
303.15 K	1150.76	521.65	662.9
308.15 K	1147.8	523.85	455.4
313.15 K	1144.89	526.06	324.6
318.15 K	1142	527.95	239.7
323.15 K	1139.11	530.48	181.2
328.15 K	1136.24	532.69	141.1
333.15 K	1133.4	535.21	111.9
338.15 K	–	537.1	–
343.15 K	–	539.62	–
348.15 K	–	541.83	–
353.15 K	–	543.72	–
358.15 K	–	546.25	–
363.15 K	–	548.14	–
368.15 K	–	550.66	–
373.15 K	–	553.19	–
378.15 K	–	555.39	–
383.15 K	–	557.92	–
388.15 K	–	560.12	–
393.15 K	–	562.33	–
398.15 K	–	564.85	–
403.15 K	–	567.06	–
408.15 K	–	569.27	–
413.15 K	–	571.79	–
418.15 K	–	574.32	–
423.15 K	–	576.21	–

CC(C)O [propan-2-ol]
[1]
Details	mass density [kg/m3]	viscosity [mPa·s]
283.15 K	793.67	3.352
288.15 K	789.58	2.843
293.15 K	785.44	2.423
298.15 K	781.24	2.08
303.15 K	776.97	1.792
308.15 K	772.62	1.554
313.15 K	768.18	1.352
318.15 K	763.65	1.183
323.15 K	759.01	1.039
328.15 K	754.26	0.918
333.15 K	749.39	0.813

CC(C)O [propan-2-ol] + Cn1cc[n+](CCC[N+](C)(C)C)c1.N#C[N-]C#N.N#C[N-]C#N
[3]
Details	mass density [kg/m3]	viscosity [mPa·s]
283.15 K	793.67	3.352
288.15 K	789.58	2.843
293.15 K	785.44	2.423
298.15 K	781.24	2.08
303.15 K	776.97	1.792
308.15 K	772.62	1.554
313.15 K	768.18	1.352
318.15 K	763.65	1.183
323.15 K	759.01	1.039
328.15 K	754.26	0.918
333.15 K	749.39	0.813
